Reference: patent publication US20220009894A1, “1,2,3,4-TETRAHYDROQUINOXALINE DERIVATIVE, PREPARATION METHOD THEREFOR AND APPLICATION THEREOF” (Abbisko Therapeutics Co., Ltd., priority 2019, published 2022)

Legend:
RORγt-LBD = target: T1, RORγt-LBD (Homo sapiens, UniProt P51449); test: Time-resolved fluorescence resonance energy-transfer assay (TR-FRET), co-activator peptide recruitment; format: biochemical; set-up: TR-FRET Biochemical Amax: unit not given here; details: for EC50: His-RORγt-LBD 30 nM, SRC peptide 500 nM, agonistic activity, averages of one or more measurements, read-out: TR-FRET Biochemical EC50/; for TR-FRET Biochemical Amax: upper activation limit, His-RORγt-LBD, SRC peptide
T1 sequence (P51449 269-508 limits assumed): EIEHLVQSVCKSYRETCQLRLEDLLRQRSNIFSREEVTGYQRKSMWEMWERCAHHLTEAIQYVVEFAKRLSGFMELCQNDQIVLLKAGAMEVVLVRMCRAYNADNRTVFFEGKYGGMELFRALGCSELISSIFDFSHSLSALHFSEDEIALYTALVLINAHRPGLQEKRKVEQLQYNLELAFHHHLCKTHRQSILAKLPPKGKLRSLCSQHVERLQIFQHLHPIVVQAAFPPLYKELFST
Outline: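 Eu-anti-His-labelled His-RORγt-LBD (30 nM final) recruits biotin-SRC co-activator peptide (500 nM final), detected via APC-streptavidin (5 nM) and Eu-anti-His (0.25 nM). Buffer was Tris/KCl/EDTA at pH 7.0 with 0.01% Triton X-100 and 1 mM DTT. Compounds were tested at 7 points in 5-fold dilutions. Plates were incubated overnight at 4 °C then 1 h at RT, and agonism was read as the 665/615 nm ratio.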

RORγt = target: T2, RORγt (Homo sapiens, UniProt P51449); test: RORγt cellular reporter gene detection assay; format: cell-based; details: 24 hrs; for EC50: HEK 293 cells co-transfected with pFN26A-RORγt-LBD and pG14.35, in presence of antagonist Ursolic acid, top concentration 50 μM; for Cellular Reporter Assay Amax: upper activation limit, HEK 293 cells, in presence of antagonist Ursolic acid;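 for Cellular Reporter Assay Amax: Ursolic Acid added as 5 µL of 20 µM medium per well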
T2 construct: The plasmid of pFN26A-RORγt-LBD and pG14.35 (Promega, Cat. No. E1370) were co-transfected into HEK 293 cells; expressed in transfected cells; host or cells: HEK 293 cells (Cat. No. GNHu18)
T2 sequence (P51449 269-508 limits assumed): T1 sequence (P51449 269-508 limits assumed)
Outline: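 HEK293 cells co-transfected with RORγt-LBD and luciferase reporter plasmids, treated with Ursolic acid antagonist plus compound in 4-fold dilutions from 50 μM for 24 h at 37° C. Firefly and Renilla luminescence read; EC50 and Amax from four-parameter fit.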

SMILES	EC50 (RORγt-LBD) [nM]	TR-FRET Biochemical Amax (RORγt-LBD)	EC50 (RORγt) [nM]	Cellular Reporter Assay Amax (RORγt)
CC(=O)N1CCN2c3ccc(/C=C/c4c(Cl)cccc4C(F)(F)F)cc3N(S(=O)(=O)c3cccc(OC(F)(F)F)c3)C[C@@H]2C1 [Example 84, (S,E)-1-(8-(2-chloro-6-(trifluoromethyl)styryl)-6-((3-(trifluoromethoxy)phenyl)sulfonyl)-1,2,4,4a,5,6-hexahydro-3H-pyrazino[1,2-a]quinoxalin-3-yl)ethan-1-one]	207	0.76	1140	4.7
COC(=O)CN1CCN2c3ccc(/C=C/c4c(Cl)cccc4C(F)(F)F)cc3N(S(=O)(=O)c3cccc(OC(F)(F)F)c3)C[C@@H]2C1 [Example 85, methyl (S,E)-2-(8-(2-chloro-6-(trifluoromethyl)styryl)-6-((3-(trifluoromethoxy)phenyl)sulfonyl)-1,2,4,4a,5,6-hexahydro-3H-pyrazino[1,2-a]quinoxalin-3-yl) acetate]	75.4	1.01	279	1.8
O=C(O)CN1CCN2c3ccc(/C=C/c4c(Cl)cccc4C(F)(F)F)cc3N(S(=O)(=O)c3cccc(OC(F)(F)F)c3)C[C@@H]2C1 [Example 86, (S,E)-2-(8-(2-chloro-6-(trifluoromethyl)styryl)-6-((3-(trifluoromethoxy)phenyl)sulfonyl)-1,2,4,4a,5,6-hexahydro-3H-pyrazino[1,2-a]quinoxalin-3-yl)acetic acid]	78.4	0.69	2340	12.6
O=S(=O)(c1cc(C(F)(F)F)cnc1OCCO)N1C[C@@H]2CNCCN2c2ccc(-c3cc(F)cc(OC(F)F)c3)cc21 [Example 87, (S)-2-((3-((8-(3-(difluoromethoxy)-5-fluorophenyl)-1,2,3,4,4a,5-hexahydro-6H-pyrazino[1,2-a]quinoxalin-6-yl)sulfonyl)-5-(trifluoromethyl)pyridin-2-yl)oxy) ethan-1-ol]	384	0.96	≥ 50000	
CC1(C)C=C(c2ccc3c(c2)N(S(=O)(=O)c2cc(C(F)(F)F)cnc2OCCO)C[C@@H]2CNCCN32)CC(C)(C)O1 [Example 88, (S)-2-((3-((8-(2,2,6,6-tetramethyl-3,6-dihydro-2H-pyran-4-yl)-1,2,3,4,4a,5-hexa hydro-6H-pyrazino[1,2-a]quinoxalin-6-yl)sulfonyl)-5-(trifluoromethyl)pyridin-2-yl)oxy)ethan-1-ol]	191	0.72	≥ 50000	
O=C(O)CN1CCN2c3ccc(-c4cc(F)cc(OC(F)F)c4)cc3N(S(=O)(=O)C3C=C(C(F)(F)F)C=NC3=O)C[C@@H]2C1 (stereo partly drawn) [Example 92, 2-((4aS)-8-(3-(difluoromethoxy)-5-fluorophenyl)-6-((2-oxo-5-(trifluoromethyl)-2,3-dihydropyridin-3-yl)sulfonyl)-1,2,4,4a,5,6-hexahydro-3H-pyrazino[1,2-a]quinoxalin-3-yl)acetic acid]	848		≥ 50000	
COc1ncc(C(F)(F)F)cc1S(=O)(=O)N1C[C@@H]2CN(CC(=O)O)CCN2c2ccc(-c3cc(F)cc(OC(F)F)c3)cc21 [Example 93, (S)-2-(8-(3-(difluoromethoxy)-5-fluorophenyl)-6-((2-methoxy-5-(trifluoromethyl)pyridin-3-yl)sulfonyl)-1,2,4,4a,5,6-hexahydro-3H-pyrazino[1,2-a]quinoxalin-3-yl)acetic acid]	46.4	0.51	264	2.1
N#Cc1cccc(-c2ccc3c(c2)N(S(=O)(=O)c2cccc(C(F)(F)F)c2)C[C@@H]2CN(CC(=O)O)CCN32)c1F [Example 94, (S)-2-(8-(3-cyano-2-fluorophenyl)-6-((3-(trifluoromethyl)phenyl)sulfonyl)-1,2,4,4a,5,6-hexahydro-3H-pyrazino[1,2-a]quinoxalin-3-yl)acetic acid]	159	0.27	3550	1.8
N#Cc1cc(F)cc(-c2ccc3c(c2)N(S(=O)(=O)c2cccc(C(F)(F)F)c2)C[C@@H]2CN(CC(=O)O)CCN32)c1 [Example 95, (S)-2-(8-(3-cyano-5-fluorophe-nyl)-6-((3-(trifluoromethyl)phe-nyl)sulfonyl)-1,2,4,4a,5,6-hexa-hydro-3H-pyrazino[1,2-a]quin-oxalin-3-yl)acetic acid]	41.9	0.40	649	1.4

Now those with a lower EC50 (RORγt-LBD), led by results:

EC50 (RORγt-LBD) [nM]	TR-FRET Biochemical Amax (RORγt-LBD)	EC50 (RORγt) [nM]	Cellular Reporter Assay Amax (RORγt)	SMILES
21.2	1.19	355	4.0	NC(=O)C1(N2CCN3c4ccc(/C=C/c5c(Cl)cccc5C(F)(F)F)cc4N(S(=O)(=O)c4cccc(C(F)(F)F)c4)C[C@@H]3C2)CCC1 [Example 81, (S,E)-1-(8-(2-chloro-6-(trifluoro-methyl)styryl)-6-((3-(trifluoro-methyl)phenyl)sulfonyl)-1,2,4,4a,5,6-hexa-hydro-3H-pyrazino[1,2-a]quinoxalin-3-yl) cyclobutane-1-carboxamide]
28.1	1.09	394	4.5	C/C(=C\c1ccc2c(c1)N(S(=O)(=O)c1cccc(C(F)(F)F)c1)C[C@@H]1CN(CC(C)(C)O)CCN21)c1c(F)cccc1Cl [Example 82, (S,E)-1-(8-(2-(2-chloro-6-fluorophenyl)prop-1-en-1-yl)-6-((3-(trifluoromethyl)phenyl)sulfonyl)-1,2,4,4a,5,6-hexahydro-3H-pyrazino[1,2-a]quinoxalin-3-yl)-2-methylpropan-2-ol]
28.9	0.98	979	7.0	O=C(O)CN1CCN2c3ccc(/C=C/c4c(Cl)cccc4C(F)(F)F)cc3N(S(=O)(=O)c3cccc(C(F)(F)F)c3)C[C@H]2C1 [Example 83, (R,E)-2-(8-(2-chloro-6-(trifluoromethyl)styryl)-6-((3-(trifluoromethyl)phenyl)sulfonyl)-1,2,4,4a,5,6-hexahydro-3H-pyrazino[1,2-a]quinoxalin-3-yl)acetic acid]
0.53	0.40	1090	2.7	CS(=O)(=O)N1CCN2c3ccc(-c4cc(F)cc(OC(F)F)c4)cc3N(S(=O)(=O)c3cc(C(F)(F)F)cnc3OCCO)C[C@@H]2C1 [Example 89, (S)-2-((3-((8-(3-(difluoromethoxy)-5-fluorophenyl)-3-(methylsulfonyl)-1,2,3,4,4a,5-hexahydro-6H-pyrazino[1,2-a]quinoxalin-6-yl)sulfonyl)-5-(trifluoromethyl)pyridin-2-yl)oxy)ethan-1-ol]
20.6	0.86	368	1.8	COC(=O)CN1CCN2c3ccc(-c4cc(F)cc(OC(F)F)c4)cc3N(S(=O)(=O)c3cc(C(F)(F)F)cnc3OCCO)C[C@@H]2C1 [Example 90, methyl (S)-2-(8-(3-(difluoromethoxy)-5-fluorophenyl)-6-((2-(2-hydroxyethoxy)-5-(trifluoromethyl)pyridin-3-yl)sulfonyl)-1,2,4,4a,5,6-hexahydro-3H-pyrazino[1,2-a]quinoxalin-3-yl)acetate]
34.1	0.47	3760	4.1	O=C(O)CN1CCN2c3ccc(-c4cc(F)cc(OC(F)F)c4)cc3N(S(=O)(=O)c3cc(C(F)(F)F)cnc3OCCO)C[C@@H]2C1 [Example 91, (S)-2-(8-(3-(difluoromethoxy)-5-fluorophenyl)-6-((2-(2-hydroxyethoxy)-5-(trifluoromethyl)pyridin-3-yl)sulfonyl)-1,2,4,4a,5,6-hexahydro-3H-pyrazino[1,2-a]quinoxalin-3-yl)acetic acid]
31.4	0.43	2090	1.2	N#Cc1ccc(F)c(-c2ccc3c(c2)N(S(=O)(=O)c2cccc(C(F)(F)F)c2)C[C@@H]2CN(CC(=O)O)CCN32)c1 [Example 96, (S)-2-(8-(5-cyano-2-fluorophe-nyl)-6-((3-(trifluoromethyl)phe-nyl)sulfonyl)-1,2,4,4a,5,6-hexa-hydro-3H-pyrazino[1,2-a]quin-oxalin-3-yl)acetic acid]
37	0.61	605	2.5	N#Cc1cc(Cl)cc(-c2ccc3c(c2)N(S(=O)(=O)c2cccc(C(F)(F)F)c2)C[C@@H]2CN(CC(=O)O)CCN32)c1 [Example 97, (S)-2-(8-(3-chloro-5-cyanophe-nyl)-6-((3-(trifluoromethyl)phe-nyl)sulfonyl)-1,2,4,4a,5,6-hexa-hydro-3H-pyrazino[1,2-a]quinox-alin-3-yl)acetic acid]
